From PMC4854934, “Rapid Screening of Antimicrobial Synthetic Peptides” (International Journal of Peptide Research and Therapeutics, 2015)
≈ marks a conversion by molar mass, not a printed value. Like-named read-outs stand apart in the source and are kept apart here. Where a SMILES comes first, the peptide text is derived from it. Where no end group is shown, it is not given here. The star is where a group is joined. Palmitoyl = CCCCCCCCCCCCCCCC(=O)*

Assays:
Format in all cases: cell-based
[1] = tested on: Bacillus subtilis ATCC 6633
Procedure: (§1) Minimum inhibitory concentration (MIC) was determined by broth microdilution method on 96-well polypropylene plates, according to Clinical and Laboratory Standards Institute (CLSI) recommendations. All tests were conducted in triplicate and involved six reference strains of the following bacteria: Bacillus subtilis ATCC 6633, Escherichia coli ATCC 25922, Klebsiella pneumoniae ATCC 200603, Pseudomonas aeruginosa ATCC 9027, Staphylococcus aureus ATCC 25923, Staphylococcus epidermidis ATCC 14490 and two reference strains of fungi: Candida albicans ATCC 10231 and Candida tropicalis PCM 2681. Concentrations of applied peptides ranged from 512 to 1 µg/mL. Two microbiological media were used: Mueller–Hinton Broth for bacteria and Sabouraud Dextrose Broth for fungi. Incubation took 18 h at 37 °C and 48 h at 27 °C respectively. MIC was taken as the lowest concentration of a peptide where the visible growth of microbes was inhibited.

[2] = tested on: Staphylococcus aureus ATCC 25923
Procedure: as §1

[3] = tested on: Staphylococcus epidermidis ATCC 14490
Procedure: as §1

[4] = tested on: Escherichia coli ATCC 25922
Procedure: as §1

[5] = tested on: Pseudomonas aeruginosa ATCC 9027
Procedure: as §1

[6] = tested on: Klebsiella pneumoniae ATCC 200603
Procedure: as §1

[7] = tested on: Candida tropicalis PCM 2681
Procedure: as §1

[8] = tested on: Candida albicans ATCC 10231
Procedure: as §1

[9] = tested on: all microorganisms tested; experiment: TLC direct bioautography (TLC-DB) with resazurin; settings: crude peptide, 10 µL of 5 mg/mL applied directly on TLC plate, no development; bacteria 37 °C 5 h, fungi 27 °C 7 h; resazurin 4 mg/mL (0.1 % Triton X-100)
Procedure: Direct bioautography assays to choose the most suitable and efficient stationary phase were performed on the following TLC plates: TLC Silica gel 60 RP-18 F254S (Merck), HPTLC-Platten Nano-SIL 20 UV254 (Macherey–Nagel), HPTLC Nano-ADAMANT UV254 (Macherey–Nagel) and TLC Aluminium oxide 60 F254 (Merck). The plates were sealed separately and autoclaved at 121 °C for 15 min. Peptide samples were dissolved in the solution of methanol and distilled water (75:25). 4 μL of each sample (5 mg/mL) was applied on the TLC plate. Separation was performed using a mobile phase consisting of n-butanol, acetone, acetic acid, 5 % ammonia and distilled water (4.5:1.5:1:1:2 v/v/v/v/v). Moreover, samples without separation were also investigated. In this case 10 µL of each sample was applied directly on the TLC plate and dried. All processes were performed under sterile conditions in the laminar flow cabinet. Microbiological assays were conducted using fivefold dilution of overnight culture of bacteria and a 48-h culture of fungi. After evaporation of eluents, TLC plates were sterilized under UV for 15 min and dipped into previously prepared inoculums of microorganisms for 20 s. Subsequently they were placed in a sterile Petri dish and incubated—bacteria at 37 °C for 5 h and fungi at 27 °C for 7 h. To visualize the growth inhibition zones, the plates were sprayed with 4 mg/mL (0.1 % Triton X-100) of a cell viability reagent, resazurin salt solution (Sigma-Aldrich).
To determine the usefulness of the TLC layer material, preliminary separation experiments were carried out. […] RP-18 layer’s stability was affected by TLC-bioautography procedures, resulting in material disruption. On the other hand, aluminum oxide layer was stable enough, however it gave low quality separation. Therefore, Nano-Sil and Nano-ADAMANT layers were chosen as the most suitable for TLC-DB of synthetic antimicrobial peptides. Mobile phase consisting of n-butanol, acetone, acetic acid, 5 % ammonia and distilled water (4.5:1.5:1:1:2 v/v/v/v/v) provided the best separation of tested compounds. Moreover, the influence of TFA content among crude peptides was also investigated. In this case all tested compounds were lyophilized from 0.1 mM HCl for three times before application on TLC plate in order to exchange the TFA to chloride counter ion. Nevertheless, the obtained results were the same. Assays with (Fig. 1) and without separation (Fig. 2) were performed simultaneously. Growing microorganisms that adhered to the surface of the TLC plate reduced the dye to pink resorufin. […] The Rf values of non-viable cell area were the same for purified compounds.

[10] = broth microdilution, 96-well polypropylene plates, Mueller-Hinton Broth, 18 h at 37 °C, peptide 512 to 1 µg/mL, triplicate, visible growth
[11] = broth microdilution, 96-well polypropylene plates, Sabouraud Dextrose Broth, 48 h at 27 °C, peptide 512 to 1 µg/mL, triplicate, visible growth

| Compound | MIC against B. subtilis ATCC 6633 ([1]; ATCC 6633, 18 h) | MIC against S. aureus ATCC 25923 ([2]; ATCC 25923, 18 h) | MIC against S. epidermidis ATCC 14490 ([3]; ATCC 14490, 18 h) | MIC against E. coli ATCC 25922 ([4]; ATCC 25922, 18 h) | MIC against P. aeruginosa ATCC 9027 ([5]; ATCC 9027, 18 h) | MIC against K. pneumoniae ATCC 200603 ([6]; ATCC 200603, 18 h) | MIC against C. tropicalis PCM 2681 ([7]; PCM 2681, 48 h) | MIC against C. albicans ATCC 10231 ([8]; ATCC 10231, 48 h) | TLC-DB without separation: appearance of spot after resazurin [9] | MIC against B. subtilis ATCC 6633 [1, 10] | MIC against S. aureus ATCC 25923 [2, 10] | MIC against S. epidermidis ATCC 14490 [3, 10] | MIC against E. coli ATCC 25922 [4, 10] | MIC against P. aeruginosa ATCC 9027 [5, 10] | MIC against K. pneumoniae ATCC 200603 [6, 10] | MIC against C. tropicalis PCM 2681 [7, 11] | MIC against C. albicans ATCC 10231 [8, 11] |
| --- | --- | --- | --- | --- | --- | --- | --- | --- | --- | --- | --- | --- | --- | --- | --- | --- | --- |
| GLFDVIKKVASVIGGL-NH2 [Citropin 1.1] | 4 µg/mL | 16 µg/mL | 8 µg/mL | 32 µg/mL | 256 µg/mL | 128 µg/mL | 128 µg/mL | 128 µg/mL |  |  |  |  |  |  |  |  |  |
| CCCCCCCCCCCCCCCC(=O)N[C@@H](CCCCN)C(=O)N[C@@H](CCCCN)C(N)=O [Pal-KK-NH2] | 2 µg/mL (≈ 3.91 µM) | 8 µg/mL (≈ 15.6 µM) | 4 µg/mL (≈ 7.82 µM) | 8 µg/mL (≈ 15.6 µM) | 128 µg/mL (≈ 250 µM) | 16 µg/mL (≈ 31.3 µM) | 128 µg/mL (≈ 250 µM) | 128 µg/mL (≈ 250 µM) | did not reduce resazurin |  |  |  |  |  |  |  |  |
| CCCCCCCCCCCCCCCC(=O)N[C@@H](CCCCN)C(=O)NCC(=O)N[C@@H](CCCCN)C(N)=O [Pal-KGK-NH2] (Palmitoyl-Lys-Gly-Lys-NH2) | 2 µg/mL (≈ 3.52 µM) | 16 µg/mL (≈ 28.1 µM) | 4 µg/mL (≈ 7.03 µM) | 8 µg/mL (≈ 14.1 µM) | 64 µg/mL (≈ 113 µM) | 16 µg/mL (≈ 28.1 µM) | >512 µg/mL | 64 µg/mL (≈ 113 µM) | did not reduce resazurin |  |  |  |  |  |  |  |  |
| KWKLFKKIGAVLKVL-NH2 [CAMEL] |  |  |  |  |  |  |  |  |  | 2 µg/mL | 4 µg/mL | 1 µg/mL | 2 µg/mL | 256 µg/mL | 2 µg/mL | 256 µg/mL | 128 µg/mL |
